≈ marks a conversion by molar mass, not a printed value.
Key:
Assay type in all cases: cell-based
[1] = test system: Haemophilus influenzae; experiment: Agar-dilution MIC, variety of bacteria (Table 8)
Description: (§1) The activity of antibiotic A51568 against a variety of bacteria, as determined by the agar-dilution method, is reported in Table 8, which follows, wherein the minimum inhibitory concentration (MIC) values are recorded.

[2] = test system: Haemophilus parainfluenzae; experiment: Agar-dilution MIC, variety of bacteria (Table 8)
Description: as §1

[3] = test system: Staphylococcus aureus; experiment: Agar-dilution MIC, variety of bacteria (Table 8)
Description: as §1

[4] = test system: Staphylococcus epidermidis; experiment: Agar-dilution MIC, variety of bacteria (Table 8)
Description: as §1

[5] = test system: Streptococcus pneumoniae; experiment: Agar-dilution MIC, variety of bacteria (Table 8)
Description: as §1

[6] = test system: Streptococcus pyogenes; experiment: Agar-dilution MIC, variety of bacteria (Table 8)
Description: as §1

[7] = test system: Streptococcus sp. Group B; experiment: Agar-dilution MIC, variety of bacteria (Table 8)
Description: as §1

[8] = test system: Streptococcus sp. Group D; experiment: Agar-dilution MIC, variety of bacteria (Table 8)
Description: as §1

[9] = test system: Escherichia coli; experiment: Standard agar-dilution assay, aerobic bacteria (Table 9)
Description: (§2) The in vitro activity of antibiotic A51568 against a number of aerobic bacteria has been determined using a standard agar-dilution assay. The results, determined by reading the end point after 24 hours, are recorded in Table 9, which follows.

[10] = test system: Haemophilus influenzae; experiment: as above
Description: as §2

[11] = test system: Klebsiella pneumoniae; experiment: as above
Description: as §2

[12] = test system: Staphylococcus aureus; experiment: as above
Description: as §2

[13] = test system: Staphylococcus epidermidis; experiment: as above; conditions: Staphylococcus epidermidis EPI1, end point after 24 hours
Description: as §2

Structure (SMILES): CC(C)C[C@@H](N)C(=O)N[C@@H]1C(=O)N[C@@H](CC(N)=O)C(=O)N[C@H]2C(=O)N[C@H]3C(=O)N[C@H](C(=O)N[C@H](C(=O)O)c4cc(O)cc(O)c4-c4cc3ccc4O)[C@H](O)c3ccc(c(Cl)c3)Oc3cc2cc(c3O[C@@H]2O[C@H](CO)[C@@H](O)[C@H](O)[C@H]2O[C@H]2C[C@](C)(N)C(O)[C@H](C)O2)Oc2ccc(cc2Cl)[C@H]1O (stereo partly shown) [A51568, demethylvancomycin]
- MIC ([1]; Haemophilus influenzae 76): 64 µg/mL (≈ 44.6 µM)
- MIC ([1]; Haemophilus influenzae 312): 128 µg/mL (≈ 89.2 µM)
- MIC ([1]; Haemophilus influenzae 4842): 32 µg/mL (≈ 22.3 µM)
- MIC ([1]; Haemophilus influenzae 16836): 128 µg/mL (≈ 89.2 µM)
- MIC ([1]; Haemophilus influenzae Bond): 64 µg/mL (≈ 44.6 µM)
- MIC ([1]; Haemophilus influenzae C.L.): 32 µg/mL (≈ 22.3 µM)
- MIC ([1]; Haemophilus influenzae Mx366): 32 µg/mL (≈ 22.3 µM)
- MIC ([1]; Haemophilus influenzae Mx371): 64 µg/mL (≈ 44.6 µM)
- MIC ([2]; Haemophilus parainfluenzae 7901): 64 µg/mL (≈ 44.6 µM)
- MIC ([2]; Haemophilus parainfluenzae 9796): 64 µg/mL (≈ 44.6 µM)
- MIC ([3]; Staphylococcus aureus 3055): 0.5 µg/mL (≈ 0.348 µM)
- MIC ([3]; Staphylococcus aureus V102): 1 µg/mL (≈ 0.697 µM)
- MIC ([3]; Staphylococcus aureus V138): 1 µg/mL (≈ 0.697 µM)
- MIC ([3]; Staphylococcus aureus V140): 1 µg/mL (≈ 0.697 µM)
- MIC ([3]; Staphylococcus aureus X400): 1 µg/mL (≈ 0.697 µM)
- MIC ([4]; Staphylococcus epidermidis 219): 1 µg/mL (≈ 0.697 µM)
- MIC ([4]; Staphylococcus epidermidis 222): 1 µg/mL (≈ 0.697 µM)
- MIC ([4]; Staphylococcus epidermidis 269): 2 µg/mL (≈ 1.39 µM)
- MIC ([4]; Staphylococcus epidermidis 270): 2 µg/mL (≈ 1.39 µM)
- MIC ([4]; Staphylococcus epidermidis 285): 2 µg/mL (≈ 1.39 µM)
- MIC ([5]; Streptococcus pneumoniae Bl-438): 0.5 µg/mL (≈ 0.348 µM)
- MIC ([5]; Streptococcus pneumoniae Park I): 0.125 µg/mL (≈ 0.0871 µM)
- MIC ([6]; Streptococcus pyogenes ATCC 10389): 0.5 µg/mL (≈ 0.348 µM)
- MIC ([6]; Streptococcus pyogenes C203): 0.5 µg/mL (≈ 0.348 µM)
- MIC ([7]; Streptococcus sp. Group B 5): 4 µg/mL (≈ 2.79 µM)
- MIC ([7]; Streptococcus sp. Group B 14): 0.5 µg/mL (≈ 0.348 µM)
- MIC ([8]; Streptococcus sp. Group D 2041): 2 µg/mL (≈ 1.39 µM)
- MIC ([8]; Streptococcus sp. Group D 2058): 4 µg/mL (≈ 2.79 µM)
- MIC ([8]; Streptococcus sp. Group D 8043): 1 µg/mL (≈ 0.697 µM)
- MIC ([8]; Streptococcus sp. Group D 9901): 2 µg/mL (≈ 1.39 µM)
- MIC ([8]; Streptococcus sp. Group D 9960): 4 µg/mL (≈ 2.79 µM)
- MIC ([8]; Streptococcus sp. Group D 12253F): 1 µg/mL (≈ 0.697 µM)
- MIC ([8]; Streptococcus sp. Group D Mx161): 1 µg/mL (≈ 0.697 µM)
- MIC ([8]; Streptococcus sp. Group D X66): 1 µg/mL (≈ 0.697 µM)
- MIC ([9]; Escherichia coli EC14, end point after 24 hours): > 128 µg/mL
- MIC ([9]; Escherichia coli N10, end point after 24 hours): > 128 µg/mL
- MIC ([9]; Escherichia coli TEM, end point after 24 hours): 128 µg/mL (≈ 89.2 µM)
- MIC ([10]; Haemophilus influenzae (resistant) R252, end point after 24 hours): 128 µg/mL (≈ 89.2 µM)
- MIC ([10]; Haemophilus influenzae (sensitive) Holt, end point after 24 hours): 64 µg/mL (≈ 44.6 µM)
- MIC ([11]; Klebsiella pneumoniae KAE, end point after 24 hours): > 128 µg/mL
- MIC ([11]; Klebsiella pneumoniae X26, end point after 24 hours): > 128 µg/mL
- MIC ([12]; Staphylococcus aureus 3055, end point after 24 hours): 1 µg/mL (≈ 0.697 µM)
- MIC ([12]; Staphylococcus aureus S13E, end point after 24 hours): 1 µg/mL (≈ 0.697 µM)
- MIC ([12]; Staphylococcus aureus V41, end point after 24 hours): 1 µg/mL (≈ 0.697 µM)
- MIC ([12]; Staphylococcus aureus X400, end point after 24 hours): 2 µg/mL (≈ 1.39 µM)
- MIC [13]: 2 µg/mL (≈ 1.39 µM)
